Active and inactive are the calls of the source. The calls are words filed in the database; no cut-off is given here.
How the values were obtained:
5'-nucleotidase = target: T1, 5'-nucleotidase (Rattus norvegicus, UniProt P21588); assay: Inhibition of rat Ecto-5'-nucleotidase transfected in COS7 cells preincubated for 10 mins followed by AMP addition measured after 10 mins; format: cell-based, COS-7
T1 sequence (P21588 whole entry): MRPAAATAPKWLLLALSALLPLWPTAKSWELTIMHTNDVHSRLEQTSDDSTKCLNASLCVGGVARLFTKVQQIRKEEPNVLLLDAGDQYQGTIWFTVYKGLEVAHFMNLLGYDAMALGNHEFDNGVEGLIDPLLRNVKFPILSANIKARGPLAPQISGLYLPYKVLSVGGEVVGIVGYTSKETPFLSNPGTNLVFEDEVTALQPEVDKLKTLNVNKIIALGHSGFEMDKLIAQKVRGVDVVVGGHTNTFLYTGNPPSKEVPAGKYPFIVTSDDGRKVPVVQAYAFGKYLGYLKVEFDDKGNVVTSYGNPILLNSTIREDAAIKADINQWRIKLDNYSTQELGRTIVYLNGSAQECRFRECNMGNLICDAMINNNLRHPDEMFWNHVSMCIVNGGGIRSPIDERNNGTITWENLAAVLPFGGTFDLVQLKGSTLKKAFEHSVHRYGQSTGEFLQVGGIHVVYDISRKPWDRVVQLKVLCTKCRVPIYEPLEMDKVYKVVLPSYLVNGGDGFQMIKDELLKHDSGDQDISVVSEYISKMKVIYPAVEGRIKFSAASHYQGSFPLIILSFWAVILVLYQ

[1] = target: T2, 5'-nucleotidase (Rattus norvegicus) (UniProt P21588); conditions: COS-7, 0.5 to 2 uM
T2 sequence (whole entry): T1 sequence (P21588 whole entry)
Description: Uncompetitive inhibition of rat Ecto-5'-nucleotidase transfected in COS7 cells at 0.5 to 2 uM preincubated for 10 mins followed by AMP addition measured after 10 mins by double-reciprocal plot analysis

IC50 (5'-nucleotidase): 583 nM
Ki (5'-nucleotidase): 27 nM
inhibition [1]: Active
SMILES: CCOC1Oc2c(Br)cc(Br)cc2C(=O)/C1=C\Nc1cccc(S(N)(=O)=O)c1 (racemic)
